Assay results as given in patent publication US20070185099A1, “Triazolopyrimidine compounds and their use for controlling pathogenic fungi” (priority 2004, published 2007).

System: Puccinia recondita
Assay: Curative activity against brown rust of wheat caused by Puccinia recondita
Assay type: in vivo
Details: 250 ppm active compound, wheat cultivar Kanzler, 7 days after treatment, untreated plants 80% infected
Procedure: The active compounds were prepared as a stock solution by mixing 25 mg of active compound with a mixture of acetone and/or DMSO and the emulsifier Uniperol® EL (wetting agent having an emulsifying and dispersing action based on ethoxylated alkylphenols) in a volume ratio of solvent/emulsifier of 99:1 to give a total volume of 10 ml, and the mixture was then diluted to 100 ml with water. This stock solution was diluted with the solvent/emulsifier/water mixture described to give the concentration of active compounds stated below.
Leaves of potted wheat seedlings of the cultivar “Kanzler” were inoculated with a spore suspension of brown rust (Puccinia recondita). The pots were then placed into a chamber with high atmospheric humidity (90 to 95%) and at 20-22° C. for 24 hours. During this time, the spores germinated and the germ tubes penetrated into the leaf tissue. The next day, the infected plants were sprayed to runoff point with an aqueous suspension having the concentration of active compounds stated below. The suspension or emulsion was prepared as described above. After the spray coating had dried on, the test plants were cultivated in a greenhouse at temperatures between 20 and 22° C. and at 65 to 70% relative atmospheric humidity for 7 days. The extent of the rust fungus development on the leaves was then determined.

Row | Compound | infection of treated plants (rust fungus development on leaves)
1 | COC(=O)C(Nc1c(-c2c(F)cc(F)cc2F)c(Cl)nc2ncnn12)C(C)(C)C (racemic) [Example 61] | no infection
2 | COC(=O)C(C(C)C)N(C)c1c(-c2c(F)cc(F)cc2F)c(Cl)nc2ncnn12 (centres unmarked) [Example 60] | no infection
